# In patent publication US20150250824A1, “METHODS AND COMPOSITIONS FOR EXPANSION OF STEM CELLS AND OTHER CELLS” (The Research Foundation For The State University Of New York, priority 2014, published 2015):
# Entries after “also recorded” stand apart in the source; their conditions may differ. Structures can show the parent of a compound that is named as a salt. Where two headings read alike, the source gives them in different places.
# Assays:
# [1] = tested on: CD34+ cells isolated from peripheral blood of G-CSF-mobilized donors; assay: Ex vivo culture of mobilized peripheral blood CD34+ cells with compounds, CD34/CD38 flow cytometry; type: cell-based, human; details: 11 days, minimal cytokines; for effect on CD34+CD38+ and CD34+CD38− populations: C, 6, F at 10 μM, Z at 100 nM
# Description: CD34+ cells were isolated from cord blood or from peripheral blood of G-CSF-mobilized adult donors and cultured as follows. Mononuclear cells (MNCs) were isolated using a simple red blood cell lysis (15 minutes at room temperature using BD PharmLyse) or using Ficoll-Paque density gradient centrifugation (Jaatinen and Laine, Current Protocols Stem Cell Biol. 1:2A.1.1-2A.1.4. (2007)). The cells were then incubated with MACS CD34+ Microbead kit (Miltenyi Biotec, Auburn, Calif.) and run through a magnetic column resulting in selection for CD34+ cells. […] Human cortex neural stem cell (hcx NSC) cells were purchased from Millipore.
# (§1) CD34+ cells were cultured in […] medium ([…] Technologies, Vancouver, BC, Canada) supplemented with 10% FBS, 100 ng/ml hSCF (human stem cell factor), 100 ng/ml hTPO (human thrombopoietin), 100 ng/ml hFLT-3 ligand (Human Fms-related Tyrosine Kinase 3) (Peprotech, Rocky Hill, N.J., USA) and 100 U/ml penicillin/streptomycin (Gibco). Human cortex Neural Progenitor Cell line (hcx NSC) was maintained in ReNcell medium: ReNcell NSC Maintenance medium (Millipore) supplemented with 20 ng/ml human EGF, 20 ng/ml human bFGF (Peprotech) and 100 U/ml penicillin/streptomycin. For expansion of cells targeted for cell sorting, we used the same media containing a different cytokine cocktail of 100 ng/ml SCF, TPO and 10 ng/ml IL-3.
# Cells were centrifuged for 5 minutes at 200 G at 4° C. Cells were resuspended with CD34, 38 and/or 41 conjugated antibodies for 30 minutes on ice. Cells were then washed with 2 ml of PBS and centrifuged for 5 minutes at 200 G at 4° C. The final pellet was resuspended using 300 μl of 2% formalin.
# CD34+ cells isolated from peripheral blood of G-CSF-mobilized donors were cultured for 11 days with minimal cytokines and the 4 chemical cocktail (C6FZ). […] The population bearing CD34+/CD38− is associated with long-term repopulating HSCs.
# CD34+ cells isolated from the peripheral blood of G-CSF-mobilized donors were next cultured for 11 days with minimal cytokines and the individual compounds, C, 6, F and Z (FIG. 13).
# [2] = tested on: hematopoietic stem/progenitor cells; assay: Dose determination of BIX, Z and UNC on expansion of hematopoietic stem/progenitor cells; type: cell-based; details: at concentrations of 0.25×
# Text: The inventors have also determined the dose for BIX, Z and UNC on the expansion of hematopoietic stem/progenitor cells. […] UNC (UNC0638) and BIX are quite similar in their impact of expansion of hematopoietic stem/progenitor cells.
# [3] = tested on: CD34+ cells isolated from human umbilical CB; type: cell-based; details: for number of large megakaryocytes / shortening of maturation compared to control: 4-5 day culture; for CD41 population compared to control: 4 days of culture, flow analysis; for ploidy development compared to control or 616452 alone: 4 and 8 days induction
# Description: Megakaryocytes derived from CB in vitro are usually smaller than megakaryocytes derived from bone marrow or mobilized peripheral blood from adults. Small megakaryocyte size may contribute to delayed platelet engraftment when cord blood is used for bone marrow transplantation. To test whether 616452 is able to increase fetal/neonatal megakaryocyte size and ploidy, CD34+ cells isolated from human umbilical CB were cultured in StemSpan SFEM containing SCF, TPO and Flt-3 Ligand. CB CD34+ cells in the presence of TPO after 4 or 8 day culture, were morphologically consistent of a relative homogenous population of small cells (FIG. 19A) and megakaryocytic features such as large nuclear size and cytoplasmic mass were hardly detectable.
# One of the unique characteristics of megakaryocytes is the ploidy development of their nuclei, which can be easily measured using propidium iodide (PI), a fluorescent intercalating agent that binds to nucleic acids. Megakaryocyte (Mk) ploidy correlates well with their maturation and platelet production. […] Out of 10,000 events, the control cells only elicited only 1 cell with a ploidy of 16N and nothing thereon greater (FIG. 20A).
# [4] = tested on: human CB CD34+ cells; assay: Ex vivo expansion of cord blood CD34+ cells in HSC media with small molecules; type: cell-based; details: for retention/expansion of CD34+CD38− stem/progenitor cells compared to control: 5 days, HSC media with SCF, TPO, Flt-3 ligand 100 ng/ml each, Z 100 nM, Bix 1 μM, T 10 μM
# Description: as §1
# Cells were centrifuged for 5 minutes at 200 G at 4° C. Cells were resuspended with CD34, 38 and/or 41 conjugated antibodies for 30 minutes on ice. Cells were then washed with 2 ml of PBS and centrifuged for 5 minutes at 200 G at 4° C. The final pellet was resuspended using 300 μl of 2% formalin. […]
# Recent studies in iPS cell reprogramming have discovered numerous small molecules modulating iPS cell reprogramming through different cellular mechanisms. These could include cellular signaling pathways (such as Wnt signaling and TGF beta) and epigenetic mechanisms, such as DNA methyltransferases, histone methylation and histone deacetylation. We have screened small molecule modulators involving these cellular mechanisms for hematopoietic stem/progenitor cell expansion. […] CB CD34+ cells were cultured for 5 days in HSC media containing SCF, TPO, and Flt-3 ligand at 100 ng/ml each. […] Bix (BIX01294), trihydrochloride hydrate is a histone methyltransferase (HMTase) G9a inhibitor (FIG. 15).
# Previously we have shown that stem cell protein is a robust stimulator for hematopoietic stem/progenitor cell expansion via recruitment of various epigenetic factors such as histone deacylases and DNA methyltransferases (Yang et al, J Biol Chem. 2012, 13; 287(3): 1996-2005). […] Based on this finding, we screened the LSD1 inhibitors for the expansion of hematopoietic precursor cells. hUCB CD34+ cells were cultured for 5 days in HSC media containing SCF, TPO, and Flt-3 ligand at 100 ng/ml each.
# [5] = tested on: eiNSCs; assay: In vitro expansion of episome-derived induced neural stem cells (eiNSCs); type: cell-based, human; details: added after the first passage in ReNcell medium
# Description: For reprogramming of CD34+ cells to iNSCs by an OCT4 episomal vector, the CD34+ cells were transduced with an EBNV1-based pCEP4-OCT4 expression plasmid in which the CMV promoter is replaced by the SFFV promoter. Cells were transduced by electroporation using the Human CD34 Cell NUCLEOFECTOR® Kit (Lonza, Koln, Germany). Post-transduction, cells were incubated with hypoxia (5% 02), following the lentivirus reprogramming strategy described above. Dzep (3-deazaneplanocin, Sigma) was added to the solution after the first passage in ReNcell medium to maintain the cells for a longer period before senescence/quiescence.
# While direct reprogramming using lentivirus does provide an increasingly popular approach that bypasses the iPS cell state, the issue of random integration of foreign DNA into the host's genome still remains. We attempted to generate iNSCs from CB by an integration-free method. CB CD34^+ were electroporated with an episomal vector containing a high expression OCT4 gene. […] In addition, eiNSCs are able to differentiate into neural and glial cells as neuron and astrocyte markers were observed after random differentiation. However, eiNSCs are slower in growth rate with a doubling time of approximately 36 hours where iNSCs have a doubling time of approximately 24 hours. […]
smiles,measurement,setting,value
"C=C[C@@]1(C)CC(=O)[C@]2(O)[C@@]3(C)[C@@H](O)CCC(C)(C)[C@@H]3[C@H](O)[C@H](OC(C)=O)[C@@]2(C)O1 [F, 7β-acetoxy-8,13-epoxy-1α,6β,9α-trihydroxylabd-14-en-11-one]",effect on CD34+CD38+ and CD34+CD38− populations,[1],induce a significant proportion of CD34+CD38+ population; also recorded: induce a significant proportion of CD34+CD38+ cells; also recorded: induced a significant expansion of CD34+CD38+
"COc1cc2c(NC3CCN(C(C)C)CC3)nc(C3CCCCC3)nc2cc1OCCCN1CCCC1 [UNC, 2-Cyclohexyl-6-methoxy-N-[1-(1-methylethyl)-4-piperidinyl]-7-[3-(1-pyrrolidinyl)propoxy]-4-quinazolinamine]",toxicity,[2],no significant toxicity
"Cc1cccc(-c2nn(C(=S)Nc3ccccc3)cc2-c2ccnc3ccccc23)n1 [compound 616454, 3-(6-Methylpyridin-2-yl)-4-(4-quinolyl)-1-phenylthiocarbamoyl-1H-pyrazole]",number of large megakaryocytes / shortening of maturation compared to control,[3],little or no effect
same,CD41 population compared to control,[3],no any significant difference from control
"Cl.N[C@H]1C[C@@H]1c1ccccc1 (racemic) [T, (±)-trans-2-Phenylcyclopropylamine hydrochloride]",fold increase in CD34+CD38− cells compared to the input,"[4]; 10 μM, 5 day culture",approximately 60 fold
same,fold increase in total cell counts compared to the input,"[4]; 10 μM, 5 day culture",~45 fold
same,retention/expansion of CD34+CD38− stem/progenitor cells compared to control,[4]; hydrochloride,retained a significant fraction of CD34+CD38− cells and expanded this population; also recorded: promotes hematopoietic precursor immunophenotype and expands CD34+CD38− population
"NC(=O)c1ccc(-c2nc(-c3ccc4c(c3)OCO4)c(-c3ccccn3)[nH]2)cc1 [SB431542, 4-[4-(1,3-benzodioxol-5-yl)-5-(2-pyridinyl)-1H-imidazol-2-yl]benzamide]",number of large megakaryocytes / shortening of maturation compared to control,[3],little or no effect
same,ploidy development compared to control or 616452 alone,[3],no significant deviation in ploidy development
same,ploidy development compared to control or 616452 alone,[3]; listed as SB431452,no significant difference
same,CD41 population compared to control,[3],marginal decrease in the CD41 population
"Nc1nccc2c1ncn2[C@@H]1C=C(CO)[C@@H](O)[C@H]1O [Z, 5R-(4-amino-1H-imidazo[4,5-c]pyridin-1-yl)-3-(hydroxymethyl)-3-cyclopentene-1S,2R-diol]",additional passages of eiNSC growth,[5],two
same,toxicity,[2],no significant toxicity
same,retention/expansion of CD34+CD38− stem/progenitor cells compared to control,[4],retained a large portion of CD34+CD38− stem/progenitor cells; also recorded: enhances retention and expansion of CD34+CD38-population; also recorded: promotes hematopoietic precursor immunophenotype and expands CD34+CD38− population
same,effect on CD34+CD38+ and CD34+CD38− populations,[1],best effect enhancing both CD34+CD38- and CD34+ and CD38+ positive cells; also recorded: ability to enhance both the population of single positive (CD34+CD38−) and double positive (CD34+CD38+) cells; also recorded: the most effects on the CD34+CD38− population
"Cc1c[nH]c(-c2cnc(NCCNc3ccc(C#N)cn3)nc2-c2ccc(Cl)cc2Cl)n1 [CHIR99021, 6-[[2-[[4-(2,4-dichlorophenyl)-5-(5-methyl-1H-imidazol-2-yl)-2 pyrimidinyl]amino]ethyl]amino]-3-pyridinecarbonitrile]",effect on CD34+CD38+ and CD34+CD38− populations,[1]; listed as C,does not have much of effect; also recorded: did not have much of effect
same,proliferation and maturation of CD34+ cells compared to control,[1]; listed as C,"rapidly proliferates bone marrow CD34 cells leading to their maturation at a significantly rapid rate compared to control; also recorded: rapidly proliferated the bone marrow CD34+ cells, leading to their maturation at a significantly rapid rate compared to control"
"COc1cc2nc(N3CCCN(C)CC3)nc(NC3CCN(Cc4ccccc4)CC3)c2cc1OC [Bix, 2-(Hexahydro-4-methyl-1H-1,4-diazepin-1-yl)-6,7-dimethoxy-N-[1-(phenylmethyl)-4-piperidinyl]-4-quinazolinamine trihydrochloride hydrate]",toxicity,[2],no significant toxicity
same,retention/expansion of CD34+CD38− stem/progenitor cells compared to control,[4]; trihydrochloride hydrate,retained a large portion of CD34+CD38− stem/progenitor cells; also recorded: enhances retention and expansion of CD34+CD38-population
